Laboratory results: article PMC10100342, “Thiamyxins: Structure and Biosynthesis of Myxobacterial RNA‐Virus Inhibitors” (Angewandte Chemie (International Ed. in English), 2022)
Converted amounts (≈) assume the structure as drawn. “And” between values parts separate entries of the source, which are not always exact repeats. Equal values may be shown once. Read-outs that look alike come from different tables or passages of the source.

Assays:
hCoV-229E-luc = assay: organism not typed; type: cell-based, alphacoronavirus HCoV-229E
Mucor hiemalis DSM-2656 = assay: Antimicrobial activity (MIC); settings: DSM2656, read-out: MIC Mucor hiemalis DSM-2656
in vitro [1] = settings: human
Bacillus subtilis DSM-10 = assay: Antimicrobial activity (MIC); settings: DSM10, read-out: MIC Bacillus subtilis DSM-10
[2] = test system: Candida albicans, Mucor hiemalis, Bacillus subtilis and Micrococcus luteus; assay: Antimicrobial test panel (whole-panel statements); settings: in the tested concentrations
Experimental: All thiamyxins except congener A, which was only produced in low amounts, were tested against two
Gram-positive and two fungal pathogens.

[3] = test system: Micrococcus luteus DSM-1790; assay: Antimicrobial activity (MIC); settings: DSM1790, read-out: MIC Micrococcus luteus DSM-1790
[4] = test system: Candida. albicans DSM-1665; assay: Antimicrobial activity (MIC); settings: DSM1665, read-out: MIC Candida. albicans DSM-1665
[5] = Cell viability (CellTiter Glo) of Huh-7 cells in parallel to ZIKV antiviral test; settings: human
DENV-R2A [6] = assay: microbe, parasite or virus in culture; settings: Dengue virus, Huh-7, 48 h, read-out: IC50 against DENV-R2A
ZIKV-H/PF/2013 = assay: microbe, parasite or virus in culture; type: cell-based; settings: Zika virus, Huh-7, 48 h, read-out: IC50 against ZIKV-H/PF/2013
DENV-R2A [7] = settings: CC50 Huh-7 versus IC50 DENV-R2A
in vitro [8] = settings: human; remark: listed apart in the source
[9] = Huh-7.5/Fluc cells, 48 h, 33 °C, Renilla luciferase, read-out: IC50 against hCoV-229E-luc
[10] = read-out: IC50 against hCoV-229E-luc, Huh-7.5/Fluc cells, 48 h, 33 °C, Renilla luciferase

Compound | CC50 (Huh-7.5 Fluc infected) | IC50 (hCoV-229E-luc; [9]) | MIC (Mucor hiemalis DSM-2656) | CC50 (in vitro [1]) | MIC (Bacillus subtilis DSM-10) | IC50 (hCoV-229E-luc; [10]) | MIC [3] | MIC [4] | IC50 (DENV-R2A [6]) | IC50 (ZIKV-H/PF/2013) | further results
COC(=O)/C=C(\OC)[C@H](C)[C@H](/C=C/c1csc(CCCCCCCC(C)C)n1)OC [Fulvuthiacene A] | > 10 µM | 1.95 µM | – | – | – | – | – | – | – | – | –
C=C(NC(=O)C1(C)CSC(c2csc(C3(C)CSC(C(NC(=O)C(C)NC(=O)C(=CC(C)C)CO)C(C)CC)=N3)n2)=N1)C(=O)NC(COC)C(=O)N(C)C(c1nc(C(=O)OCC(O)CO)cs1)C(C)C (stereo not drawn) [Thiamyxin D] | – | – | > 64 µg/mL | > 10 µM | > 64 µg/mL | > 10 µM | > 64 µg/mL | > 64 µg/mL | – | – | IC50 (hCoV-229E-luc; read-out: IC50 against hCoV-229E-luc, Huh-7.5/Fluc cells, 48 h, 33 °C, Renilla luciferase, listed as KH_Mx152_1050): 23.1 µM; IC50 (hCoV-229E-luc; read-out: IC50 against hCoV-229E-luc, Huh-7.5/Fluc cells, 48 h, 33 °C, Renilla luciferase, listed as thiamyxin D): ~20 µM and ~23.1 µM; effect on the antimicrobial test panel in words [2]: did not show effects
C=C(NC(=O)C1(C)CSC(c2csc(C3(C)CSC(C(NC(=O)C(C)NC(=O)C(=CC(C)C)CO)C(C)CC)=N3)n2)=N1)C(=O)NC(COC)C(=O)N(C)C(c1nc(C(=O)O)cs1)C(C)C (stereo not drawn) [Thiamyxin C] | – | – | 64 µg/mL (≈ 65.6 µM) | > 10 µM | 64 µg/mL (≈ 65.6 µM) | > 10 µM | 32 µg/mL (≈ 32.8 µM) | > 64 µg/mL | 14.6 µM | > 15 µM | CC50 at 48 h [5]: > 50 µM; IC50 (hCoV-229E-luc; read-out: IC50 against hCoV-229E-luc, Huh-7.5/Fluc cells, 48 h, 33 °C, Renilla luciferase, listed as KH_Mx152_976): 20.5 µM; IC50 (hCoV-229E-luc; read-out: IC50 against hCoV-229E-luc, Huh-7.5/Fluc cells, 48 h, 33 °C, Renilla luciferase, listed as thiamyxin C): ~20 µM and ~20.5 µM
C=C1NC(=O)C2(C)CSC(=N2)c2csc(n2)C2(C)CSC(=N2)C(C(C)CC)NC(=O)C(C)NC(=O)C(=CC(C)C)COC(=O)c2csc(n2)C(C(C)C)N(C)C(=O)C(COC)NC1=O (stereo not drawn) [Thiamyxin B] | – | – | > 64 µg/mL | – | > 64 µg/mL | 2.39 µM | > 64 µg/mL | 64 µg/mL (≈ 66.8 µM) | 0.56 µM | 1.07 µM | CC50 (Huh-7.5 Fluc infected; human): > 10 µM; CC50 at 48 h [5]: 2.25 µM; difference between IC50 and CC50, DENV-R2A assay (DENV-R2A [7]): fourfold; CC50 at 48 h (in vitro [8]): 2.25 µM
NC(=O)c1ncn([C@@H]2O[C@H](CO)[C@@H](O)[C@H]2O)n1 [ribavirin, reference compound] | – | – | – | – | – | – | – | – | 2.3 µM | 2.5 µM | –
Chondrosarid B | > 10 µM | 4.19 µM | – | – | – | – | – | – | – | – | –
C=C1NC(=O)C2(C)CSC(=N2)c2csc(n2)C2(C)CSC(=N2)C(C(C)CC)NC(=O)C(C)NC(=O)C(=CC(C)C)COC(=O)c2csc(n2)C(C(C)C)N(C)C(=O)C(COC)NC1=O (stereo not drawn) [Thiamyxin A] | – | – | – | > 10 µM | – | 2.47 µM | – | – | – | – | IC50 (hCoV-229E-luc; Huh7.5, 48 h, read-out: IC50 against hCoV-229E-luc, Huh-7.5/Fluc cells, 48 h, 33 °C, Renilla luciferase): 2.49 µM
COC(=O)/C=C(\OC)[C@H](C)[C@H](/C=C/c1csc(CCCCCC(C)C)n1)OC [Fulvuthiacene B] | > 10 µM | 0.97 µM | – | – | – | – | – | – | – | – | –
